Experimental data as given in patent US8604049B2, “4-dimethylamino-phenyl-substituted naphthyridines, and use thereof as medicaments” (Boehringer Ingelheim International GmbH, priority 2008, dated 2013).
Where two headings read alike, the source gives them in different places.

Target: T1, Recombinant human Syk (GST-Syk kinase fusion protein) (Homo sapiens, UniProt P43405)
T1 construct: made in house
Experiment: Syk Kinase Test (Kinase Glo luminescence)
Format: biochemical
Settings: read-out: SYK inh % at 1 μM
Procedure: The catalytic activity of the GST-Syk kinase fusion protein was determined using the Kinase Glo® Luminescence Kinase test of Messrs Promega. In this homogeneous test the amount of ATP remaining after the kinase reaction has been carried out is quantified by a luciferin-luciferase reaction using luminescence. The luminescence signal obtained correlates with the amount of ATP still present and thus correlates inversely with the activity of the protein kinase.
GST-Syk was diluted to 6.0 nM in the test buffer and 10 μl of this dilution were used in the kinase test (final concentration of Syk=4 nM in a total volume of 15 μl).
Positive controls are the reaction mixtures that contain no test substance; negative controls are reaction mixtures that contain no kinase.
After 60 minutes, 10 μl Kinase-Glo® solution (Promega, Cat. #V6712) (heated to ambient temperature) are added to each well and incubation is continued for a further 15 minutes at ambient temperature.
Data Evaluation and Calculation:
The output file of the “MicroBeta TRILUX” is a text file that contains the well number and measurements obtained. […] Then from this the % inherent value for the measurement of each substance concentration was calculated using an “MS-Excel—VB macro”. […] The IC50 values were calculated from the % inhibition values using “GraphPadPrism” software (Version 5) (GraphPad Software Inc.).

[1] = 1 μM test substance, 4 nM GST-Syk

Row | inhibition at 1 µM [1] [%] | Compound | inhibition at 1 µM [%]
1 | 71.9 | Cc1cc(-c2cc3ncccc3c(O[C@H]3CC[C@H](O)CC3)n2)ccc1N(C)C [Example 2] | 
2 | 85.2 | Cc1cc(-c2cc3ncccc3c(O[C@H]3CC[C@@H](O)CC3)n2)ccc1N(C)C [Example 1] | 
3 | 85.2 | Cc1cc(-c2cc3ncccc3c(NCCc3cn[nH]c3)n2)ccc1N(C)C [Example 6] | 
4 |  | Cc1cc(-c2cc3ncccc3c(N3CC[C@@H](CN)C3)n2)ccc1N(C)C [Example 3, 5-(aminomethylpyrrolidin-1-yl)-7-(4-dimethylamino-3-methylphenyl)-[1,6]naphthyridine] | 88.2
5 |  | COc1nc(-c2ccc(N(C)C)c(C)c2)cc2ncccc12 [Example 17, 5-methoxy-7-(4-dimethylamino-3-methylphenyl)-[1,6]naphthyridine] | 73.2
6 |  | Cc1cc(-c2cc3ncccc3c(-n3cc(CCO)cn3)n2)ccc1N(C)C [Example 12, 5-(4-hydroxyethyl-pyrazolyl)-7-(4-dimetyhlamino-3-methylphenyl)-[1,6]naphthyridine] | 105
7 |  | Cc1cc(-c2cc3ncccc3c(NC3CC3)n2)ccc1N(C)C [Example 20, 5-(cyclopropylamino)-7-(4-dimethylamino-3-methylphenyl)-[1,6]naphthyridine] | 90.2
